The test system of data set [1] is NCI-H1975. Description: cells. Type of data set: functional, cell-based. The settings on record: Homo sapiens, NCI-H1975, 48 h.
Description: Antiproliferative activity against human NCI-H1975 cells assessed as inhibition of cell growth incubated for 48 hrs by CCK assay
The test system of data set [2] is PC-9. Nature of the data set: cells. Format: functional, cell-based. The following applies: Homo sapiens, PC-9, 48 h.
Description: Antiproliferative activity against human PC-9 cells expressing EGFR del19/T790M/C797S triple mutant assessed as inhibition of cell growth incubated for 48 hrs by CCK assay
For data set [3], the target named is Epidermal growth factor receptor (Homo sapiens, UniProt P00533, EX19DEL). Description: Inhibition of EGFR del19 mutant (unknown origin).
For data set [4], the target named is Epidermal growth factor receptor (Homo sapiens, UniProt P00533, C797S/L858R/T790M). Nature of the data set: Inhibition of EGFR L858R/T790M/C797S triple mutant (unknown origin).
The test system of data set [5] is PC-9. Nature of the data set: cells. Type of data set: functional, cell-based. The following applies: Homo sapiens, PC-9, 48 h. The source holds these as a separate data set.
Description: Antiproliferative activity against human PC-9 cells assessed as inhibition of cell growth incubated for 48 hrs by CCK assay
The test system of data set [6] is A549. Description: cells. Format: functional, cell-based. The following applies: Homo sapiens, A549, 48 h.
Description: Antiproliferative activity against human A549 cells expressing wild type EGFR assessed as inhibition of cell growth incubated for 48 hrs by CCK assay
Data set [7] is described as follows: Cytotoxicity against human BEAS-2B cells assessed as inhibition of cell growth incubated for 48 hrs by CCK-8 assay. Format: toxicity, cell-based. For orientation: Tetrazolium dyes change colour on reduction, which living cells bring about.
Data set [8] deals with PC-9. Description: Antiproliferative activity against human PC-9 cells expressing EGFR del19/T790M/C797S triple mutant assessed as reduction in cell proliferation at 100 to 500 nM incubated for 48 hrs Edu staining based analysis. The following applies: dose 100-500 nM. Type of data set: functional.
Data set [9] has as its system PC-9. Description: Inhibition of colony formation in human PC-9 cells expressing EGFR del19/T790M/C797S triple mutant at 100 nM. Type of data set: functional, cell-based.
The nature of data set [10]: Selectivity index, ratio of IC50 for cytotoxicity against human BEAS-2B cells assessed as inhibition of cell growth to IC50 for antiproliferative activity against human PC-9 cells expressing EGFR del19/T790M/C797S triple mutant assessed as inhibition of cell growth. Format: toxicity, cell-based. The settings on record: read-out: Ratio IC50.
In data set [11] the test system is PC-9. Nature of the data set: Inhibition of colony formation in human PC-9 cells expressing EGFR del19/T790M/C797S triple mutant at 1 uM. Format: functional, cell-based.
In data set [12] the test system is PC-9. Description: Inhibition of cell migration in human PC-9 cells expressing EGFR del19/T790M/C797S triple mutant at 1 uM incubated for 48 hrs by transwell assay. Format: functional, cell-based.

The source made the active and inactive calls. No cut-off for these calls is given here. Some results are limits rather than exact numbers.

Epidermal growth factor receptor (Homo sapiens, UniProt P00533, EX19DEL), sequence (P00533 whole entry, looked up, stated change not applied): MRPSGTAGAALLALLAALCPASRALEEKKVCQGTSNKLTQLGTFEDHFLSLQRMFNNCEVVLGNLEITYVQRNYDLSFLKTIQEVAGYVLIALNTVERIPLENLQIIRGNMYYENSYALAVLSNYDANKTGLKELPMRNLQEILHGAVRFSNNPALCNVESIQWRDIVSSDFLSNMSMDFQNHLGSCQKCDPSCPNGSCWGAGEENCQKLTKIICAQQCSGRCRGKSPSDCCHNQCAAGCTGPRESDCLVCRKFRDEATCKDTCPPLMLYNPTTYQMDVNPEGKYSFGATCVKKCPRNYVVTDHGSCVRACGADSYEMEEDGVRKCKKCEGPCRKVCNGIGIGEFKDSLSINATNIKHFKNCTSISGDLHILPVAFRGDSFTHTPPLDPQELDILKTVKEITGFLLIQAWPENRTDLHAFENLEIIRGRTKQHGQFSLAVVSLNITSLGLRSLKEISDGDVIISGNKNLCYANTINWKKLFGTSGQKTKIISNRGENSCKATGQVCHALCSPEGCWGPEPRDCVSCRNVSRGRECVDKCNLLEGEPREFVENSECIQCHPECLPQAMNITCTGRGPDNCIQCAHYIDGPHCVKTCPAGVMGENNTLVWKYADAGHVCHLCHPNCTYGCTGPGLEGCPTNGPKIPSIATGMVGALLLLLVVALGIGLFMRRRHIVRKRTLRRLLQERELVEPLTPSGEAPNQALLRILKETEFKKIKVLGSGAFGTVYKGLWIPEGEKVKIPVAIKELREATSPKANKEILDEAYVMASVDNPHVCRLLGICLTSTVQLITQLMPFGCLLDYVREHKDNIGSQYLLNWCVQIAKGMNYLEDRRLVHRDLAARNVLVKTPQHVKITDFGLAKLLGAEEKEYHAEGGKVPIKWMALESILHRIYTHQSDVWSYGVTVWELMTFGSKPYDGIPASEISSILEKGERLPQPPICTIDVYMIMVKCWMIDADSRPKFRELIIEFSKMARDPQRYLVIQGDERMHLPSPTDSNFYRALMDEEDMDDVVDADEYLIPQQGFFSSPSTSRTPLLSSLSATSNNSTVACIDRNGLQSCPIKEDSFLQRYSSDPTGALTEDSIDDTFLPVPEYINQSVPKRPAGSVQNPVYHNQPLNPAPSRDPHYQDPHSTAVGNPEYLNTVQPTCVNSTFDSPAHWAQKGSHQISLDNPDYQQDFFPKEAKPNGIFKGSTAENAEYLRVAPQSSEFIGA
Epidermal growth factor receptor (Homo sapiens, UniProt P00533, C797S/L858R/T790M), sequence (P00533 25-1210 T790M/C797S/L858R limits assumed): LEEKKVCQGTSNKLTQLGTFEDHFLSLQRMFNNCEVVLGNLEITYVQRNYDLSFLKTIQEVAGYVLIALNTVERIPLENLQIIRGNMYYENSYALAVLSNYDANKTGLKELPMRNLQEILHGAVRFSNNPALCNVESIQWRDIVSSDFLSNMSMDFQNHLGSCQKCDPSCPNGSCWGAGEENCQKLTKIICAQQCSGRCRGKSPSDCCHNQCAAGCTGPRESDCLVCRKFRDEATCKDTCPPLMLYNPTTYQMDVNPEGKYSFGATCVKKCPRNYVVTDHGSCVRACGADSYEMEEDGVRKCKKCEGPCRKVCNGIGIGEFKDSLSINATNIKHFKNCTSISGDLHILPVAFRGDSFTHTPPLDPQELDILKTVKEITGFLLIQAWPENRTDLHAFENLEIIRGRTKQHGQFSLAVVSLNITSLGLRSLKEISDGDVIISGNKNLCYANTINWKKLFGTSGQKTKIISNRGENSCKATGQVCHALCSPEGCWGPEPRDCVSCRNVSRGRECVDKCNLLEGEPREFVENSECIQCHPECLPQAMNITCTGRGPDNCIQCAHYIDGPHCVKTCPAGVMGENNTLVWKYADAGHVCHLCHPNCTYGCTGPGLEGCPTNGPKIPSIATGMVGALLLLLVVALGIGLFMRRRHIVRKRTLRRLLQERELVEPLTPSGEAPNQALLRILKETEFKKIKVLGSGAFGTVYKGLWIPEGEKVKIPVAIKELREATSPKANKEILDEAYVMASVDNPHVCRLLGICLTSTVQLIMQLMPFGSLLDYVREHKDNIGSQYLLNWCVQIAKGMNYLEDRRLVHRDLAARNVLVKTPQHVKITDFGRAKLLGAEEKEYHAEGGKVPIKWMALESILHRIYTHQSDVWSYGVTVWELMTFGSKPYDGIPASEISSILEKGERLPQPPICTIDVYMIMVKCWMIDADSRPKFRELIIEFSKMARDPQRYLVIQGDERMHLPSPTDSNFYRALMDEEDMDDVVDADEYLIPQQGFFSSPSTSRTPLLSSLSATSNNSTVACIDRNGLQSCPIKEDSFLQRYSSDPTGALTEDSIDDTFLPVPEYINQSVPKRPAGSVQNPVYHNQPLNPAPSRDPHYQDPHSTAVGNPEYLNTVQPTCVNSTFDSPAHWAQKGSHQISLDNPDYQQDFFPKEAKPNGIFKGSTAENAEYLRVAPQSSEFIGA

`O=C(O)CN1CCN(CC(=O)O)CC(=O)Nc2cc3c(Nc4ccc(Br)cc4F)ncnc3cc2NC(=O)C1`: the IC50 (commonly the concentration at which inhibition is half-maximal) in [1] stood at 3.44 µM; in data set [2], 0.767 µM; in [3] it was 0.161 µM; in data set [4] it was 0.251 µM; in data set [5], 2.7 µM; in data set [6], 7.78 µM.
For `C=CC(=O)Nc1cc(Nc2nccc(-c3cn(C)c4ccccc34)n2)c(OC)cc1N(C)CCN(C)C` [OSIMERTINIB], the IC50 was found to be […] in data set [1], 0.912 µM in data set [2], 0.08 µM in data set [5] and 0.637 µM in [6]. Also, the half-maximal inhibitory concentration (IC50) at 48 h in data set [7] amounted to 20.1 µM.
In the case of `O=C(O)CN1CCN(CC(=O)O)CC(=O)Nc2cc3c(Nc4cccc(Cl)c4)ncnc3cc2NC(=O)C1`, the IC50 in [1] amounted to 23.3 µM; in [2], 84 µM; in data set [5], 30.7 µM; in data set [6], 2.26 µM.
For `O=C(O)CN1CCN(CC(=O)O)CC(=O)Nc2cc3c(Nc4ccc(Cl)cc4Cl)ncnc3cc2NC(=O)C1`, the concentration for half-maximal inhibition (IC50) in data set [1] is 4.54 µM; in [2], 11 µM; in data set [5] it was 1.66 µM; in [6], over 100 µM.
On to `C#Cc1cccc(Nc2ncnc3cc4c(cc23)OCCOCCOCCO4)c1` [ICOTINIB], for which the IC50 stood at 5.75 µM in data set [1], 1.26 µM in data set [2], 1.53 µM in [5] and 56 µM in data set [6].
For the molecule `O=C1CNCCNCC(=O)Nc2cc3c(Nc4ccc(F)c(Cl)c4)ncnc3cc2N1`, the concentration for half-maximal inhibition (IC50) in [1] is 4.43 µM; in data set [2], 4.61 µM; in data set [3], over 1000 µM; in [4], over 1000 µM; in [5] it was 12.5 µM; in data set [6] it was 1.38 µM.
Consider `O=C(O)CN1CCN(CC(=O)O)CC(=O)Nc2cc3c(Nc4cccc(F)c4)ncnc3cc2NC(=O)C1`, for which the result in data set [8] was Active. The inhibition entry in data set [9], in [11] and in data set [12] was “Active” each time. In addition, the IC50 in data set [1] came out at 1.41 µM; in data set [2], 0.496 µM; in data set [3] it was 0.136 µM; in [4], 0.161 µM; in data set [5], 1.13 µM; in data set [6] it was 0.946 µM. Moreover, the selectivity ratio in [10] was found to be 34.7. Further, the concentration for half-maximal inhibition (IC50) at 48 h in [7] worked out at 17.2 µM.
In the case of `O=C(O)CN1CCN(CC(=O)O)CC(=O)Nc2cc3c(Nc4ccc(F)c(Cl)c4)ncnc3cc2NC(=O)C1`, the IC50 in [1] is 18.9 µM; in data set [2], 13.2 µM; in [5] it was 7.87 µM; in [6], over 100 µM.
On the same counts, the results for `COc1cccc(Nc2ncnc3cc4c(cc23)NC(=O)CN(CC(=O)O)CCN(CC(=O)O)CC(=O)N4)c1` are 3.04 µM, 6.7 µM, 12.3 µM and 35.1 µM.
On the same counts, the results for `O=C(O)CN1CCN(CC(=O)O)CC(=O)Nc2cc3c(Nc4cccc(Br)c4)ncnc3cc2NC(=O)C1` are 4.41 µM, 3.6 µM, 31.6 µM and over 100 µM.
Turning to `CCc1cc(Br)ccc1Nc1ncnc2cc3c(cc12)NC(=O)CN(CC(=O)O)CCN(CC(=O)O)CC(=O)N3`, the IC50 stood at 4.85 µM in [1], 3.43 µM in data set [2], 49.3 µM in data set [5] and 3.32 µM in [6].
Turning to `O=C(O)CN1CCN(CC(=O)O)CC(=O)Nc2cc3c(Nc4ccc(OCc5cccc(F)c5)c(Cl)c4)ncnc3cc2NC(=O)C1`, the IC50 in data set [1] was found to be 2.49 µM; in [2] it was 1.09 µM; in data set [3], 0.18 µM; in data set [4], 0.22 µM; in data set [5], 6.57 µM; in data set [6] it was 4.02 µM.
Regarding `O=C(O)CN1CCN(CC(=O)O)CC(=O)Nc2cc3c(Nc4ccccc4)ncnc3cc2NC(=O)C1`, the IC50 was 3.91 µM in data set [1], 14.2 µM in data set [2], 32.9 µM in [5] and 3.91 µM in data set [6].
Regarding `CCc1cccc(Nc2ncnc3cc4c(cc23)NC(=O)CN(CC(=O)O)CCN(CC(=O)O)CC(=O)N4)c1`, the IC50 in data set [1] is 8.11 µM; in data set [2], 1.52 µM; in data set [3], 0.378 µM; in data set [4], 0.321 µM; in [5], 10.2 µM; in data set [6], over 100 µM.
